From US10420734B2, “Method of treating cancer using selective estrogen receptor modulators” (Duke University, priority 2014, dated 2019)

How the values were obtained:
[1] = target: T1, human estrogen receptor alpha (ESR1) (Homo sapiens, UniProt P03372); assay: ERE-luciferase reporter assay in transiently transfected SKBR3 cells (ESR1); format: cell-based
T1 construct: expressed in transfected cells; host or cells: SKBR3
T1 sequence (P03372 1-595): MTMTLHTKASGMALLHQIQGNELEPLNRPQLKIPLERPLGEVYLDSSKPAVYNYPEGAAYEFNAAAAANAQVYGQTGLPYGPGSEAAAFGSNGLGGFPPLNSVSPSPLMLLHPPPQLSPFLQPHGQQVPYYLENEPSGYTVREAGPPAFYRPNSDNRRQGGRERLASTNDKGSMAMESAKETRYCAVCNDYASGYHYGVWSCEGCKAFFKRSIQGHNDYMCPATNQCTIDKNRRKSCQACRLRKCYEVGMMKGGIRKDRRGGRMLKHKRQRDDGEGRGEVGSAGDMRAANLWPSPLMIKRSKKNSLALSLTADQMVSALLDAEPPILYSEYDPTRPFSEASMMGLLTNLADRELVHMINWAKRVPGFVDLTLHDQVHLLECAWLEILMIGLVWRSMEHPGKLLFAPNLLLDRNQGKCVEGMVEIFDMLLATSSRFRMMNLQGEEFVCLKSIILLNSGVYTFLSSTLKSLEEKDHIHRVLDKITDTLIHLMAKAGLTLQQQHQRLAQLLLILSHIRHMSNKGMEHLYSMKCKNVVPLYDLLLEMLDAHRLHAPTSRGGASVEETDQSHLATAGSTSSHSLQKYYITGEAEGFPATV
Protocol: The ability of RAD1901 (FIG. 5A) to modulate the […] estradiol (E2) dependent transcriptional activity of the human estrogen receptor alpha (ESR1) and human estrogen receptor beta (ESR2) was assessed in transiently transfected SKBR3 cells using a synthetic reporter gene. […] For FIG. 5B, SKBR3 cells were plated in phenol red free media supplemented with charcoal stripped FBS (CFS) 24 hours prior to transfection with an ERE-luciferase reporter together with ESR1 or ESR2 expression vectors. 24 hours after transfection, cells were treated with E2 (10 nM) together with RAD1901 (10^−10-10^−6 M) for 24 hours prior to harvest and analysis of luciferase activity normalized to co-transfected β-galactosidase control. […] For FIG. 5D, MCF7 cells were plated in phenol red free media supplemented with CFS 24 hours prior to treatment, and were treated with 10^−9 M E2 as well as with the indicated ligands (10^−11-10^−6 M) on days 1, 4, and 6 of an 8 day proliferation assay. DNA content as assessed by fluorescence was measured as a surrogate for cell proliferation. The relative increase in DNA fluorescence was calculated by normalizing to baseline values detected in a duplicate plate of cells that was harvested on day 1 prior to the initial treatment. […] For FIG. 5F, expression of ESR1 target genes in tumors was analyzed essentially as in (C).

[2] = tested on: MCF7 xenograft tumors; assay: MCF7 xenograft tumor study in estrogen-treated ovariectomized nu/nu mice; format: in vivo; details: 20 mg/kg sc daily
Protocol: A total of 90 female Nu/Nu mice were ovariectomized and implanted subcutaneous simultaneously with an estrogen pellet (Innovative Research of America) releasing 0.72 mg estradiol (E2) over 60 days. 2 days later an approximately 6 mm^3 fragment of an MCF7 xenograft tumor (isolated from a recently sacrificed estrogen treated nu/nu mouse) was inserted subcutaneous into the axial mammary gland. Tumor growth (by caliper measurement) and animal body weight were monitored 3× weekly until tumor volume reached ˜0.2 cm^3. […] Treatments were formulated in sterile corn oil and were administered daily by subcutaneous injection. After 3 weeks of treatments, animals were euthanized and serum and tissues saved for analysis. FIG. 1B depicts tumor volume analyzed using non-linear curve fit and exponential growth calculation (Graphpad Prism), followed by two-way ANOVA and Bonferroni analysis.
Xenograft tumor analysis: Estrogen-stimulated MCF7 tumors were initiated in the axial mammary gland of 6-week old estrogen-treated (0.72 mg/60 days pellet sc, Innovative Research of America) ovariectomized female NU/NU mice (in-house colony) by serial transfer and were measured as described (Wardell et al., (2013) Clin Cancer Res 19 (9):2420-2431). […] Animal tissues were processed and analyzed as described (Wardell et al., (2013) Clin Cancer Res 19 (9):2420-2431).
The ability of RAD1901 (FIG. 5A) to modulate the […] estradiol (E2) dependent transcriptional activity of the human estrogen receptor alpha (ESR1) and human estrogen receptor beta (ESR2) was assessed in transiently transfected SKBR3 cells using a synthetic reporter gene. […] DNA content as assessed by fluorescence was measured as a surrogate for cell proliferation. The relative increase in DNA fluorescence was calculated by normalizing to baseline values detected in a duplicate plate of cells that was harvested on day 1 prior to the initial treatment. […] For FIG. 5F, expression of ESR1 target genes in tumors was analyzed essentially as in (C).

more potent inhibitor of ESR1 than of ESR2 ([1]; ERE-luciferase reporter): 100 fold | inhibition of E2-dependent activation of an ERE-luciferase reporter ([1]; ESR1 isoform, E2 10 nM, RAD1901 10^-10-10^-6 M, 24 hours): effectively inhibited
Structure (SMILES): CCNCCc1ccc(CN(CC)c2cc(OC)ccc2[C@@H]2CCc3cc(O)ccc3C2)cc1 [RAD1901, (R)-6-{2-{ethyl[4-(2-ethylaminoethyl)benzyl]amino}-4-methoxyphenyl}-5,6,7,8-tetrahydronaphthalen-2-ol]
E2-stimulated growth of MCF7 tumors [2]: inhibited E2-stimulated growth of the tumors with efficacy similar to tamoxifen | expression of ESR1-target genes PGR and FHL1 in treated tumors [2]: suppress the expression of the ESR1-target genes PGR and FHL1 to the same degree
